The values below come from US8604029B2, “2-[(2-substituted)-indolizin-3-yl]-2-oxo-acetamide derivatives as antifungal agents” (F2G Ltd British Body Corporate, priority 2006, dated 2013).

In brackets after ≈: the same amount, converted by molar mass. Where only a bound is given, the exact number is not on record here.

The first assay deals with Aspergillus fumigatus. Description: MIC measurement, YAG medium. Format: cell-based. The settings on record: Aspergillus fumigatus, read-out: MIC A. fumigatus. The protocol: Between 1 and 5 mgs of compound were accurately weighed out into a sterile Eppendorf tube. The compound was dissolved in DMSO to give a solution containing […]. Tubes were stored at −20° C. until required.
On the day of testing thawed solutions were vortex mixed to ensure homogeneity. 30 μL of solution was removed and added to 570 μL of sterile water in a separate sterile Eppendorf. The thoroughly mixed solution was used to prepare a series of doubling dilutions in water, in a deep well plate. Thirteen replicate plates were prepared using a Minitrak by aspirating 20 μL from each well into eleven clear polystyrene 96 well plates.
Spores of Aspergillus spp. (Aspergillus fumigatus [two strains], Aspergillus terreus [two strains], Aspergillus niger and Aspergillus flavus) were harvested from cultures grown on Sabarauds agar for 5 days, and resuspended in PBS/Tween 80 to approx 1×10^7 cfu/mL. Other filamentous fungi (Absidia corymbifera, Fusarium solani, Rhizomucor, Scedosporium spp., Trichophyton spp.), were grown on Sabarauds agar for 2-10 days and spores/hyphae resuspended in PBS/Tween to give approx 1×10^7 cfu/mL. Candida species (Candida albicans, Candida glabrata, Candida krusei, Candida parapsilosis and Candida tropicalis) were grown on Sabarauds agar, cells were harvested from the agar using a sterile loop and resuspended in PBS/Tween 80 to approx 1×10^6 cfu/mL. Each organism suspension was diluted in RPMI medium, containing 2% glucose and 0.135 M MOPS buffer (pH 7.0) to 0.5-2×10^4 cfu/mL for Aspergillus spp. and other filamentous fungi and 0.5-2×10^3 cfu/mL for yeast. 80 μL of an organism suspension was added to each well of the plate containing drug dilutions.
This produced MIC plates with a drug range 50-0.05 mg/L and organism inocula of 1-2×10^4 cfu/mL for Aspergillus spp. and other filamentous fungi and 1-2×10^3 cfu/mL for yeasts. All plates were incubated for 24-48 hrs at 35° C. Growth was assessed by monitoring the optical density at 485 nm for each well. The MIC of a compound is the lowest drug concentration that inhibits growth of an organism by >80% compared with a drug free control. MICs are recorded as mg/L. Other growth media can be used for susceptibility testing, and the activity of the described compounds can also be assessed in a medium comprising 1% glucose, 1% ammonium chloride and 0.5% yeast extract (YAG medium). To perform MIC tests in this medium, dilutions of compounds are prepared in microtitre plates as described above. Fungal strains to be tested are grown and harvested in an identical manner to that described above, each organism suspension is then diluted in YAG medium to 0.5-2×10^4 cfu/mL for Aspergillus spp. and other filamentous fungi and 0.5-2×10^3 cfu/mL for yeast. 80 μL of an organism suspension was added to each well of the plate containing drug dilutions. This produced MIC plates with a drug range 50-0.05 mg/L and organism inocula of 1-2×10^4 cfu/mL for Aspergillus spp. and other filamentous fungi and 1-2×10^3 cfu/mL for yeasts. All plates were incubated for 24 hrs at 35° C. Growth was assessed by monitoring the optical density at 485 nm for each well. The MIC of a compound is the lowest drug concentration that inhibits growth of an organism by >70% compared with a drug free control. MICs are recorded as mg/L. In cases where the MIC of an organism is […] mg/L the MIC is repeated using a concentration range of 0.5-0.0005 mg/L. MIC tests in YAG medium have more clear-cut endpoints and have slightly lower MICs than those performed in RPMI medium.
The following organisms were tested: Absidia corymbifera, Aspergillus flavus, Aspergillus fumigatus AF293 and AF210, Aspergillus niger, Aspergillus terreus AT4 and AT49, Candida albicans, Candida glabrata, Candida krusei, Candida parapsilosis, Candida tropicalis, Fusarium solani, Rhizomucor sp., Scedosporium apiospermum, Scedosporium prolificans, Trichophyton mentagrophytes, and Trichophyton rubrum.
The MIC is the lowest concentration found to suppress growth. Consider `O=C1Cc2cc(NC(=O)C(=O)c3c(-c4ccccc4)cc4ccccn34)ccc2N1` [Example 9, 2-Oxo-N-(2-oxo-2,3-dihydro-1H-indol-5-yl)-2-(2-phenyl-indolizin-3-yl)-acetamide], for which the MIC is greater than 10 µg/mL.

The same assay, now with this note: Aspergillus fumigatus; YAG medium; MIC banded into grades; strain AF293; read-out: MIC A. fumigatus.
For `Cc1cc(C)nc(N2CCN(c3ccc(NC(=O)C(=O)c4c(C5CCOCC5)cc5ccccn45)cc3)CC2)c1` [Example 66, N-{4-[4-(4,6-Dimethyl-pyridin-2-yl)-piperazin-1-yl]-phenyl}-2-oxo-2-[2-(tetrahydro-pyran-4-yl)-indolizin-3-yl]-acetamide], the MIC was less than 1 µg/mL. The same measure, in the same setting: the figure for `CN1/C(=N/c2ccc(NC(=O)C(=O)c3c(-c4ccccc4)cc4ccccn34)cc2)OCC1(C)C` [Example 8, 2-oxo-2-(2-phenyl-indolizin-3-yl)-N-{4-[3,4,4-trimethyl-oxazolidin-(2Z)-ylideneamino]-phenyl}-acetamide] is greater than 10 µg/mL; for `CCc1ccnc(N2CCN(c3ccc(NC(=O)C(=O)c4c(-c5ccccc5)cc5ccccn45)cc3)CC2)c1` [Example 75, N-{4-[4-(4-ethyl-pyridin-2-yl)-piperazin-1-yl]-phenyl}-2-oxo-2-(2-phenyl-indolizin-3-yl)-acetamide] it is less than 1 µg/mL. Still for that read-out and setting: the figure for `O=C(Nc1ccc(N2CCN(c3cc(OCCO)ccn3)CC2)cc1)C(=O)c1c(-c2ccccc2)cc2ccccn12` [Example 89, N-(4-{4-[4-(2-Hydroxy-ethoxy)-pyridin-2-yl]-piperazin-1-yl}-phenyl)-2-oxo-2-(2-phenyl-indolizin-3-yl)-acetamide] is 1 to 10 µg/mL (≈ 1.78 to 17.8 µM). On the same count and under the same terms, the figure for `Cc1ccc(N2CCN(c3ccc(NC(=O)C(=O)c4c(-c5ccccc5)cc5ccccn45)cc3)CC2)nc1` [Example 74, N-{4-[4-(5-Methyl-pyridin-2-yl)-piperazin-1-yl]-phenyl}-2-oxo-2-(2-phenyl-indolizin-3-yl)-acetamide] is less than 1 µg/mL. For `O=C(Nc1ccc(N2CCN(S(=O)(=O)c3cccnc3)CC2)cc1)C(=O)c1c(-c2ccccc2)cc2ccccn12` [Example 51, 2-Oxo-2-(2-phenyl-indolizin-3-yl)-N-{4-[4-(pyridine-3-sulfonyl)-piperazin-1-yl]-phenyl}-acetamide], the MIC is less than 1 µg/mL. The same measure, in the same setting: the figure for `Cc1cc(C)nc(N2CCN(c3ccc(NC(=O)C(=O)c4c(C(C)(C)C)cc5ccccn45)cc3)CC2)c1` [Example 62, 2-(2-tert-Butyl-indolizin-3-yl)-N-{4-[4-(4,6-dimethyl-pyridin-2-yl)-piperazin-1-yl]-phenyl}-2-oxo-acetamide] is greater than 10 µg/mL.

For the compound `Cc1cc(C)nc(N2CCN(c3ccc(NC(=O)C(=O)c4c(-c5ccccc5)cc5ccccn45)cc3C)CC2)c1` [Example 82, N-{4-[4-(4,6-Dimethyl-pyridin-2-yl)-piperazin-1-yl]-3-methyl-phenyl}-2-oxo-2-(2-phenyl-indolizin-3-yl)-acetamide], the MIC is less than 1 µg/mL. Same read-out and setting: the figure for `Cc1cc(C)nc(N2CCN(c3ccc(NC(=O)C(=O)c4c(C5CC5)cc5ccccn45)cc3)CC2)c1` [Example 58, 2-(2-Cyclopropyl-indolizin-3-yl)-N-{4-[4-(4,6-dimethyl-pyridin-2-yl)-piperazin-1-yl]-phenyl}-2-oxo-acetamide] is less than 1 µg/mL; for `CC(C)c1nccn1CCOC(=O)C(C)(C)c1cccc(NC(=O)C(=O)c2c(-c3ccccc3)cc3ccccn23)c1` [Example 22, 2-Methyl-2-{3-[2-oxo-2-(2-phenyl-indolizin-3-yl)-acetylamino]-phenyl}-propionic acid 2-(2-isopropyl-imidazol-1-yl)-ethyl ester] it is greater than 10 µg/mL. For the compound `O=C(Nc1ccc(N2CCS(=O)(=O)CC2)cc1)C(=O)c1c(-c2ccccc2)cc2ccccn12` [Example 1, N-[4-(1,1-Dioxo-1λ^6-thiomorpholin-4-yl)-phenyl]-2-oxo-2-(2-phenyl-indolizin-3-yl)-acetamide], the MIC was greater than 10 µg/mL.

In the case of `Cc1cc(C)nc(NCCN(C)c2ccc(NC(=O)C(=O)c3c(-c4ccccc4)cc4ccccn34)cc2)c1` [Example 69, N-(4-{[2-(4,6-dimethyl-pyridin-2-ylamino)-ethyl]-methyl-amino}-phenyl)-2-oxo-2-(2-phenyl-indolizin-3-yl)-acetamide], the MIC was less than 1 µg/mL. The same measure, in the same setting: as for `Cc1cc(NC(=O)C(=O)c2c(-c3ccccc3)cc3ccccn23)ccc1OCCCn1ccnc1C(C)C` [Example 12, N-{4-[3-(2-Isopropyl-imidazol-1-yl)-propoxy]-3-methyl-phenyl}-2-oxo-2-(2-phenyl-indolizin-3-yl)-acetamide], the figure is 1 to 10 µg/mL (≈ 1.92 to 19.2 µM); as for `Cc1cccc(N2CCN(c3ccc(NC(=O)C(=O)c4c(-c5ccccc5)cc5ccccn45)cc3)CC2)n1` [Example 43, N-{4-[4-(6-Methyl-pyridin-2-yl)-piperazin-1-yl]-phenyl}-2-oxo-2-(2-phenyl-indolizin-3-yl)-acetainide], less than 1 µg/mL; as for `O=C(Nc1ccc(N2CCN(CCc3ccco3)CC2)cc1)C(=O)c1c(-c2ccccc2)cc2ccccn12` [Example 39, N-{4-[4-(2-Furan-2-yl-ethyl)-piperazin-1-yl]-phenyl}-2-oxo-2-(2-phenyl-indolizin-3-yl)-acetamide], less than 1 µg/mL.

In the case of `CC(C)c1ncc(C(C)(C)c2ccc(NC(=O)C(=O)c3c(-c4ccccc4)cc4ccccn34)cc2)n1C` [Example 17, N-{4-[1-(2-Isopropyl--3-methyl-3H-imidazol-4-yl)-1-methyl-ethyl]-phenyl}-2-oxo-2-(2-phenyl-indolizin-3-yl)-acetamide], the MIC was greater than 10 µg/mL. As to `O=C(Nc1ccc(N2CCC3(CC2)OCCO3)cc1)C(=O)c1c(-c2ccccc2)cc2ccccn12` [Example 23, N-[4-(1,4-dioxa-8-aza-spiro[4.5]dec-8-yl)-phenyl}-2-oxo-2-(2-phenyl-indolizine-3-yl)-acetamide], the minimal inhibitory concentration (MIC) is less than 1 µg/mL.

With `COCCN(C)c1ccc(N2CCN(c3ccc(NC(=O)C(=O)c4c(-c5ccccc5)cc5ccccn45)cc3)CC2)cn1` [Example 68, N-[4-(4-{6-[(2-Methoxy-ethyl)-methyl-amino]-pyridin-3-yl}-piperazin-1-yl)-phenyl]-2-oxo-2-(2-phenyl-indolizin-3-yl)-acetamide], the MIC was less than 1 µg/mL.

Consider `O=C(Nc1ccc(N2CCN(c3cccnc3)CC2)cc1)C(=O)c1c(-c2ccccc2)cc2ccccn12` [Example 59, 2-Oxo-2-(2-phenyl-indolizin-3-yl)-N-[4-(4-pyridin-3-yl-piperazin-1-yl)-phenyl]-acetamide], for which the MIC is less than 1 µg/mL.

In the case of `Cc1cc(C)nc(N2CCN(c3ccc(NC(=O)C(=O)c4c(-c5ccccc5)cc5ccc(F)cn45)cc3)CC2)c1` [Example 32, N-{4-[4-(4,6-Dimethyl-pyridin-2-yl)-piperazin-1-yl]-phenyl}-2-(6-fluoro-2-phenyl-indolizin-3-yl)-2-oxo-acetamide], the MIC is less than 1 µg/mL. Same read-out and setting: the figure for `Cc1c(-c2ccccc2)c2ccccn2c1C(=O)C(=O)Nc1ccc(N2CCOCC2)cc1` [Example 7, 2-(2-methyl-1-phenyl-indolizin-3-yl)-N-(4-morpholin-4-yl-phenyl)-2-oxo-acetamide] is greater than 10 µg/mL; for `CCc1cccc(N2CCN(c3ccc(NC(=O)C(=O)c4c(-c5ccccc5)cc5ccccn45)cc3)CC2)n1` [Example 73, N-{4-[4-(6-ethyl-pyridin-2-yl)-piperazin-1-yl]-phenyl}-2-oxo-2-(2-phenyl-indolizin-3-yl)-acetamide] it is less than 1 µg/mL.

Regarding `CON=C1CCN(c2ccc(NC(=O)C(=O)c3c(-c4ccccc4)cc4ccccn34)cc2)CC1` [Example 2, N-[4-(4-methoxyimino-piperidin-1-yl)-phenyl]-2-oxo-2-(2-phenyl-indolizin-3-yl)-acetamide], the MIC was less than 1 µg/mL.
